Data as given in ChEMBL document CHEMBL1148644, “Human PEPT1 pharmacophore distinguishes between dipeptide transport and binding” (J Med Chem, 2006).
Where a SMILES comes first, the peptide text is derived from it.

Key:
[1] = biological target: T1, Solute carrier family 15 member 1 (Homo sapiens, UniProt P46059); experiment: Activation of human PEPT1 expressed in MDCK cells; assay type: functional, cell-based
T1 sequence (P46059 whole entry): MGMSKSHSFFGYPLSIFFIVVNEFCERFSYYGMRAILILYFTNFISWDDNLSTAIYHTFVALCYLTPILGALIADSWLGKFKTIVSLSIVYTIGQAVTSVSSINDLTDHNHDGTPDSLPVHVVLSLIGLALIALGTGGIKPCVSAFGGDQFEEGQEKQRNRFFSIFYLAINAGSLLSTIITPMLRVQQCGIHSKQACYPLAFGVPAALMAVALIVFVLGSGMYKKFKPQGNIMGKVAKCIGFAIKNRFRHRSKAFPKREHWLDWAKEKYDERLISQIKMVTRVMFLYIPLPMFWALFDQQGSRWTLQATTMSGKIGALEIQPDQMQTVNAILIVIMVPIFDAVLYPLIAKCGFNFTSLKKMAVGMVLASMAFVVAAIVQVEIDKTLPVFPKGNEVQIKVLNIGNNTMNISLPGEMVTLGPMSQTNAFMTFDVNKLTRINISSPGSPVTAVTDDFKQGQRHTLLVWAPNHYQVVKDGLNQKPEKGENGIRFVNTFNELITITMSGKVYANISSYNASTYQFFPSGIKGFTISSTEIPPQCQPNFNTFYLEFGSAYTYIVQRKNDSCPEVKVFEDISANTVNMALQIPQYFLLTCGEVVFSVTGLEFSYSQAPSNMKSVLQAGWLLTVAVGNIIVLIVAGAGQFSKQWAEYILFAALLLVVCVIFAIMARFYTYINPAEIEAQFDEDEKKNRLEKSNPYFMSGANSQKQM

[2] = biological target: T1, Solute carrier family 15 member 1; experiment: Binding affinity to human PEPT1 assessed as inhibition of [14C]Gly-Sar uptake in MDCK cells; assay type: functional, cell-based; conditions: read-out: IC50

**Q.** What does the source list for `CC(C)[C@H](NC(=O)[C@@H](N)CC(=O)O)C(=O)O` (H-Asp-Val-OH)?
**A.** EC50 [1]: 690 µM; IC50 [2]: 310 µM
